Test results from patent US12630765B2, “Fertilizer composition for reducing methane gas emission comprising ethephon and uses thereof” (priority 2020, dated 2026).

Assays:
[1] = tested on: methanogens in soils (mcrA, methyl coenzyme-M reductase gene); assay: Activity of methanogens in soils (mcrA gene copy number); conditions: for Activity of methanogens (mcrA gene copy no./g soil): 20 mg/kg in soils at fresh water conditions, cultivation for 50 days; for mcrA gene copy number reduced compared to the control: 20 mg/kg in soils, 50 days, vs control
From the text: (§1) It is known that coenzyme M (hereinbelow, “Co-M”), which is produced during the intercellular reactions of methanogens, is an inhibitor for specifically inhibiting the methanogenic activity of methanogens. Accordingly, ethephon was selected in the present invention as a structural analogue of Co-M. Specifically, CES (2-chloroethane sulfonate), BES (2-bromoethane sulfonate), and MES (2-mercaptoethane sulfonate) that are known as a structural analogue of Co-M, and ethephon (IUPAC name: 2-chloroethyl phosphonic acid) selected as a structural analogue of Co-M in the present invention were applied, each at the same concentration (20 mg/kg), to soils at fresh water conditions. Then, along with cultivation for 50 days, methane concentration in headspace and activity of the methanogens in soils were measured.
(§2) First, methane concentration in headspace was measured and emission amount of methane gas was analyzed.

methanogens in soils = assay: Methane concentration in headspace of soils at fresh water conditions treated with Co-M structural analogues; conditions: for Methane concentration in headspace: 20 mg/kg in soils at fresh water conditions, cultivation for 50 days; for methane emission amount reduced compared to the control: 20 mg/kg in soils, 50 days, vs soils without sample treatment
From the text: as §1, §2

rice = assay: Yield property of rice after fertilizer application; format: in vivo, Oryza sativa
Protocol: (§3) Fertilizer composition prepared by mixing ethephon, cellulose acetate, and gypsum at various mixing ratios was applied in an amount of 2 ton/ha to soils of flooded rice paddies before rice transplanting. Then, emission amount of methane during the subsequent process of cultivating rice, effect of inhibiting methane emission, and yield property of rice were analyzed.

[2] = tested on: methanogens in soils of flooded rice paddies; assay: Methane emission from soils of flooded rice paddies during rice cultivation after fertilizer application; format: in vivo; conditions: for Methane emission: applied before rice transplanting
Protocol: To acetone in which ethephon has been dissolved at various concentrations based on the blending ratio described in the following Table 4, cellulose acetate was added and dissolved therein. After mixing the resultant with gypsum and drying the mixture till to have evaporation of acetone, the mixture was crushed to have particle size of not more than 2 mm. Accordingly, fertilizer capable of reducing methane emission amount by delaying the ethephon degradation in soils was prepared. Since acetone is highly volatile so that it can completely evaporate during the process of mixing and drying ethephon, cellulose acetate, and gypsum, it is used in minimum amount depending on the total amount of mixture. Meanwhile, the ethephon treatment amount of 2 kg/ha, 6 kg/ha, and 10 kg/ha means that ethephon is applied at concentration of 1 mg/kg, 3 mg/kg, and 5 mg/kg (ppm), respectively, in soils.
as §3

[3] = ethephon 2 kg/ha with gypsum 1940 kg/ha and CA 60 kg/ha
[4] = ethephon 6 kg/ha with gypsum 1940 kg/ha and CA 60 kg/ha
[5] = ethephon 10 kg/ha with gypsum 1940 kg/ha and CA 60 kg/ha

SMILES: O=S(=O)([O-])CCBr.[Na+] [BES, 2-bromoethane sulfonate]
- Activity of methanogens (mcrA gene copy no./g soil) [1]: 1.65 × 10^6 mcrA gene copy no./g soil
- mcrA gene copy number reduced compared to the control [1]: ~45%
- Methane concentration in headspace (methanogens in soils): 4.4 mg/L
- methane emission amount reduced compared to the control (methanogens in soils): ~56%

SMILES: O=S(=O)([O-])CCCl.[Na+] [CES, 2-chloroethane sulfonate]
- Activity of methanogens (mcrA gene copy no./g soil) [1]: 1.86 × 10^6 mcrA gene copy no./g soil
- mcrA gene copy number reduced compared to the control [1]: about 39%
- Methane concentration in headspace (methanogens in soils): 5.1 mg/L
- methane emission amount reduced compared to the control (methanogens in soils): about 48%

SMILES: O=P(O)(O)CCCl [Ethephon, 2-chloroethyl phosphonic acid]
- Activity of methanogens (mcrA gene copy no./g soil) [1]: 1.35 × 10^6 mcrA gene copy no./g soil
- mcrA gene copy number reduced compared to the control [1]: ~55%
- Methane concentration in headspace (methanogens in soils): 4.4 mg/L
- methane emission amount reduced compared to the control (methanogens in soils): ~56%
- Grain yield (rice; [3]): 6331 kg/ha
- Straw yield (rice; [3]): 6964 kg/ha
- Yield index (rice; [3]): 100
- change in rice yield in relation to the application amount of ethephon (rice; ethephon 2 to 10 kg/ha in fertilizer): no significant change in rice yield
- Grain yield (rice; [4]): 6298 kg/ha
- Straw yield (rice; [4]): 6928 kg/ha
- Yield index (rice; [4]): 99.6
- Grain yield (rice; [5]): 6315 kg/ha
- Straw yield (rice; [5]): 6946 kg/ha
- Yield index (rice; [5]): 99.9
- Effect of inhibiting methanogenesis [2, 3]: 50.5%
- Methane emission [2, 3]: 36.9 kg CH4 ha^−1
- Effect of inhibiting methanogenesis [2, 4]: 78.6%
- Methane emission [2, 4]: 15.9 kg CH4 ha^−1
- Effect of inhibiting methanogenesis [2, 5]: 98.1%
- Methane emission [2, 5]: 1.4 kg CH4 ha^−1
- Effect of inhibiting methanogenesis ([2]; ethephon 10 kg/ha with gypsum 1940 kg/ha and CA 60 kg/ha, listed as ethephon): about 98.1%
- methane gas emission amount from flooded rice paddies ([2]; fertilizer containing ethephon vs fertilizer not containing any ethephon): significantly lower
